Test results taken from the supplement of paper PMC11451515.

System: SEM cells
Assay: cell viability relative to DMSO control; higher = less cytotoxic
Settings: 48 h
Method in brief: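 In 1536-well plates, 5 μl of leukemia cells were seeded per well: 500 cells/well for NOMO1 or SEM and 1000 cells/well for P12-Ichikawa. Each line had first been adapted for at least four passages in each medium. Library compounds in DMSO were pin-dosed at 11 threefold concentrations between 47 μM and 0.79 nM, and CellTiter-Glo One luminescence was read after 48 h at 37°C. Viability is a per-plate percentage relative to DMSO wells, with cell-free wells as background.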

[1] = HPLM + 10% dialyzed FBS, 0.000781 µM
[2] = HPLM + 10% dialyzed FBS, 0.00234 µM
[3] = HPLM + 10% dialyzed FBS, 0.00702 µM
[4] = HPLM + 10% dialyzed FBS, 0.0211 µM
[5] = HPLM + 10% dialyzed FBS, 0.0632 µM
[6] = HPLM + 10% dialyzed FBS, 0.19 µM
[7] = HPLM + 10% dialyzed FBS, 0.569 µM
[8] = HPLM + 10% dialyzed FBS, 1.71 µM
[9] = HPLM + 10% dialyzed FBS, 5.12 µM
[10] = HPLM + 10% dialyzed FBS, 15.4 µM
[11] = HPLM + 10% dialyzed FBS, 46.1 µM
[12] = RPMI 5 mM glucose + 10% FBS, 0.000781 µM
[13] = RPMI 5 mM glucose + 10% FBS, 0.00234 µM
[14] = RPMI 5 mM glucose + 10% FBS, 0.00702 µM
[15] = RPMI 5 mM glucose + 10% FBS, 0.0211 µM
[16] = RPMI 5 mM glucose + 10% FBS, 0.0632 µM
[17] = RPMI 5 mM glucose + 10% FBS, 0.19 µM
[18] = RPMI 5 mM glucose + 10% FBS, 0.569 µM
[19] = RPMI 5 mM glucose + 10% FBS, 1.71 µM
[20] = RPMI 5 mM glucose + 10% FBS, 5.12 µM
[21] = RPMI 5 mM glucose + 10% FBS, 15.4 µM
[22] = RPMI 5 mM glucose + 10% FBS, 46.1 µM
[23] = RPMI 5 mM glucose + 10% dialyzed FBS, 0.000781 µM
[24] = RPMI 5 mM glucose + 10% dialyzed FBS, 0.00234 µM
[25] = RPMI 5 mM glucose + 10% dialyzed FBS, 0.00702 µM
[26] = RPMI 5 mM glucose + 10% dialyzed FBS, 0.0211 µM
[27] = RPMI 5 mM glucose + 10% dialyzed FBS, 0.0632 µM
[28] = RPMI 5 mM glucose + 10% dialyzed FBS, 0.19 µM
[29] = RPMI 5 mM glucose + 10% dialyzed FBS, 0.569 µM
[30] = RPMI 5 mM glucose + 10% dialyzed FBS, 1.71 µM
[31] = RPMI 5 mM glucose + 10% dialyzed FBS, 5.12 µM
[32] = RPMI 5 mM glucose + 10% dialyzed FBS, 15.4 µM
[33] = RPMI 5 mM glucose + 10% dialyzed FBS, 46.1 µM

## O=c1[nH]c2ccccc2n1C1CCN(Cc2ccc(-c3nc4cc5nc[nH]c5cc4nc3-c3ccccc3)cc2)CC1
[1]
  cell viability: 97.3%
[2]
  cell viability: 103%
[3]
  cell viability: 107%
[4]
  cell viability: 109%
[5]
  cell viability: 105%
[6]
  cell viability: 103%
[7]
  cell viability: 106%
[8]
  cell viability: 64.6%
[9]
  cell viability: 98.3%
[10]
  cell viability: 88.6%
[11]
  cell viability: 86.5%
[12]
  cell viability: 69.5%
[13]
  cell viability: 68.9%
[14]
  cell viability: 79.1%
[15]
  cell viability: 70.3%
[16]
  cell viability: 75.1%
[17]
  cell viability: 77.7%
[18]
  cell viability: 73.2%
[19]
  cell viability: 37.9%
[20]
  cell viability: 60.3%
[21]
  cell viability: 60.2%
[22]
  cell viability: 46.4%
[23]
  cell viability: 89.6%
[24]
  cell viability: 101%
[25]
  cell viability: 109%
[26]
  cell viability: 106%
[27]
  cell viability: 103%
[28]
  cell viability: 115%
[29]
  cell viability: 94.6%
[30]
  cell viability: 50.5%
[31]
  cell viability: 98.9%
[32]
  cell viability: 88.9%
[33]
  cell viability: 70.9%

## Cc1c(NC(=O)OC[C@@H]2COCCN2)cn2ncnc(Nc3ccc4c(cnn4Cc4cccc(F)c4)c3)c12
[1]
  cell viability: 74.5%
[2]
  cell viability: 72%
[3]
  cell viability: 85.6%
[4]
  cell viability: 85.8%
[5]
  cell viability: 91.5%
[6]
  cell viability: 106%
[7]
  cell viability: 94.5%
[8]
  cell viability: 96.8%
[9]
  cell viability: 103%
[10]
  cell viability: 21.7%
[11]
  cell viability: 25%
[12]
  cell viability: 95.5%
[13]
  cell viability: 95.2%
[14]
  cell viability: 103%
[15]
  cell viability: 103%
[16]
  cell viability: 116%
[17]
  cell viability: 102%
[18]
  cell viability: 109%
[19]
  cell viability: 104%
[20]
  cell viability: 98.6%
[21]
  cell viability: 15.4%
[22]
  cell viability: 10.8%
[23]
  cell viability: 71.7%
[24]
  cell viability: 62.1%
[25]
  cell viability: 78.1%
[26]
  cell viability: 90.3%
[27]
  cell viability: 74.8%
[28]
  cell viability: 84%
[29]
  cell viability: 88.5%
[30]
  cell viability: 99.6%
[31]
  cell viability: 85.6%
[32]
  cell viability: 16.8%
[33]
  cell viability: 9.72%

## N#Cc1c(NC(=O)c2cccc3ccccc23)sc2c1CCCC2
[1]
  cell viability: 108%
[2]
  cell viability: 115%
[3]
  cell viability: 116%
[4]
  cell viability: 125%
[5]
  cell viability: 125%
[6]
  cell viability: 105%
[7]
  cell viability: 66%
[8]
  cell viability: 23.2%
[9]
  cell viability: 24.1%
[10]
  cell viability: 19.7%
[11]
  cell viability: 23%
[12]
  cell viability: 119%
[13]
  cell viability: 119%
[14]
  cell viability: 130%
[15]
  cell viability: 125%
[16]
  cell viability: 119%
[17]
  cell viability: 119%
[18]
  cell viability: 48.4%
[19]
  cell viability: 20.3%
[20]
  cell viability: 16.9%
[21]
  cell viability: 15.6%
[22]
  cell viability: 17.9%
[23]
  cell viability: 122%
[24]
  cell viability: 125%
[25]
  cell viability: 126%
[26]
  cell viability: 137%
[27]
  cell viability: 124%
[28]
  cell viability: 118%
[29]
  cell viability: 53.7%
[30]
  cell viability: 25.5%
[31]
  cell viability: 26.2%
[32]
  cell viability: 18%
[33]
  cell viability: 26.1%

## Nc1ncnc2c1c(-c1cnc3[nH]ccc3c1)nn2C1CCCC1
[1]
  cell viability: 111%
[2]
  cell viability: 113%
[3]
  cell viability: 127%
[4]
  cell viability: 122%
[5]
  cell viability: 113%
[6]
  cell viability: 105%
[7]
  cell viability: 95.2%
[8]
  cell viability: 69.6%
[9]
  cell viability: 51.1%
[10]
  cell viability: 36.2%
[11]
  cell viability: 11%
[12]
  cell viability: 81.9%
[13]
  cell viability: 76.3%
[14]
  cell viability: 85.1%
[15]
  cell viability: 95.4%
[16]
  cell viability: 94.8%
[17]
  cell viability: 73.6%
[18]
  cell viability: 68.8%
[19]
  cell viability: 49.2%
[20]
  cell viability: 33.8%
[21]
  cell viability: 24.7%
[22]
  cell viability: 6.03%
[23]
  cell viability: 123%
[24]
  cell viability: 120%
[25]
  cell viability: 125%
[26]
  cell viability: 114%
[27]
  cell viability: 129%
[28]
  cell viability: 112%
[29]
  cell viability: 99.6%
[30]
  cell viability: 73.8%
[31]
  cell viability: 59.5%
[32]
  cell viability: 42.6%
[33]
  cell viability: 6.97%
